The values that follow come from paper PMC10108347, “Heterobifunctional Ligase Recruiters Enable pan-Degradation of Inhibitor of Apoptosis Proteins” (Journal of Medicinal Chemistry, 2023).

Data set [1] has as its target T1, plasma protein (HSA column) (Homo sapiens, UniProt P02768).
T1 construct: purchased
The data set can be described thus: Plasma protein binding estimated by HPLC on a […] HSA column. It counts as in vitro ADME. Particulars: CHIRALPAK HSA column (50 × 3 mm, 5 μm), estimated by an HPLC-based method, read-out: PPB (plasma protein binding) (converted). The protocol:
Plasma protein binding (% PPB) was estimated by correlating the logarithmic retention times of the analytes on a […] HSA 50 × 3 mm, 5 μm column with the literature-known % PPB values (converted into log K values) of the following drugs: warfarin, ketoprofen, budesonide, nizatidine, indomethacin, acetylsalicylic acid, carbamazepine, piroxicam, nicardipine, and cimetidine (for details, see Valko et al.).[67] The samples were dissolved in MeCN/DMSO 9:1 to achieve a final concentration of 0.5 mg/mL. Mobile phase A was 50 mM ammonium acetate adjusted to pH 7.4 with ammonia solution, while mobile phase B was iPrOH. The flow rate was set to 1.0 mL/min, the UV detector was set to 254 nm, and the column temperature was kept at 30 °C. After injecting 2 μL of the sample, a linear gradient from 100% A to 30% iPrOH in 5.4 min was applied. From 5.4 to 18 min, 30% iPrOH was kept, followed by switching back to 100% A in 1.0 min and a re-equilibration time of 6 min. With the aid of the calibration line (R^2 = 0.96), the log K values of new substances were calculated and converted to their % PPB values.

The nature of data set [2]: Log D7.4 measurement by chromatographic (fast-gradient HPLC) method. Particulars: for chromatographic logD: pH 7.4.
Procedure: The system was calibrated by plotting the retention times of six different drugs (atenolol, metoprolol, labetalol, diltiazem, triphenylene, and permethrin) versus their literature-known log D7.4 in a calibration line (R^2 = 0.99). Subsequently, the mean retention times of the analytes were taken to calculate their log D7.4 values with the aid of the calibration line. At least two independent measurements of each analyte were performed.
For a further data set, the target named is XIAP (Homo sapiens, UniProt P98170). In words: Immunoblotting (western blot) quantification of XIAP levels in MM.1S cells. Particulars: for remaining activity at 0.1 µM: MM1.S, 16 h. A general note: Immunoblotting shows a protein as a band on a membrane.
For another data set, the target named is CRBN (Homo sapiens, UniProt Q96SW2). The data set can be described thus: Immunoblotting (western blot) quantification of CRBN levels in MM.1S cells. Particulars: for remaining activity at 0.1 µM: MM1.S, 16 h, read-out: %remaining protein CRBN.
The next data set concerns the target cIAP1 (Homo sapiens, UniProt Q13490). In words: Immunoblotting (western blot) quantification of cIAP1 levels in MM.1S cells. Particulars: for remaining activity at 0.1 µM: MM1.S, 16 h.
The next data set deals with cIAP2 (Homo sapiens, UniProt Q13489). In words: Immunoblotting (western blot) quantification of cIAP2 levels in MM.1S cells. Particulars: for remaining activity at 0.1 µM: MM1.S.
The subject of another data set is IKZF3. The data set can be described thus: Immunoblotting (western blot) quantification of IKZF3 levels in MM.1S cells. Particulars: for %remaining protein IKZF3: 16 h treatment at 0.1 μM, normalized to loading control and DMSO.
For another data set, the target named is VHL30 (Homo sapiens, UniProt P40337). The data set can be described thus: Immunoblotting (western blot) quantification of VHL30 levels in MM.1S cells. Particulars: MM1.S, 16 h, read-out: %remaining protein VHL30.
The subject of data set [3] is IAPs (cIAP1, cIAP2, XIAP). In words: Immunoblotting of IAPs in MM.1S cells, overall degradation profile, time course and washout. It counts as cell-based. Particulars: 16 h, western blot, concentration (10 nM to 1 μM). As to the method: Next, we examined the persistence of IAP degradation in MM.1S cells after a single exposure to 1 μM of 9 and subsequent removal of the compound. […] The reliance on CRL2^VHL was assessed with a neddylation inhibitor MLN4924, which blocks the activity of CRLs (Figure S13A).

[4] abbreviates: read-out: %remaining protein XIAP, MM.1S cells, 16 h treatment at 0.1 μM, normalized to loading control and DMSO.
Setting [5] is: read-out: %remaining protein cIAP1, MM.1S cells, 16 h treatment at 0.1 μM, normalized to loading control and DMSO.
Where [6] appears, read: 16 h, read-out: %remaining protein cIAP2, MM.1S cells, 16 h treatment at 0.1 μM, normalized to loading control and DMSO.
The mark [7] stands for this setting: read-out: %remaining protein XIAP.
Where [8] appears, read: read-out: %remaining protein cIAP1.
Where [9] appears, read: 16 h, read-out: %remaining protein cIAP2.
The mark [10] stands for this setting: MM.1S cells, 16 h treatment at 0.1 μM, normalized to loading control and DMSO.

The term chromatographic logD denotes lipophilicity estimated from chromatographic retention.

Read-outs that look alike come from different tables or passages of the source.

cIAP1, sequence (Q13490 whole entry): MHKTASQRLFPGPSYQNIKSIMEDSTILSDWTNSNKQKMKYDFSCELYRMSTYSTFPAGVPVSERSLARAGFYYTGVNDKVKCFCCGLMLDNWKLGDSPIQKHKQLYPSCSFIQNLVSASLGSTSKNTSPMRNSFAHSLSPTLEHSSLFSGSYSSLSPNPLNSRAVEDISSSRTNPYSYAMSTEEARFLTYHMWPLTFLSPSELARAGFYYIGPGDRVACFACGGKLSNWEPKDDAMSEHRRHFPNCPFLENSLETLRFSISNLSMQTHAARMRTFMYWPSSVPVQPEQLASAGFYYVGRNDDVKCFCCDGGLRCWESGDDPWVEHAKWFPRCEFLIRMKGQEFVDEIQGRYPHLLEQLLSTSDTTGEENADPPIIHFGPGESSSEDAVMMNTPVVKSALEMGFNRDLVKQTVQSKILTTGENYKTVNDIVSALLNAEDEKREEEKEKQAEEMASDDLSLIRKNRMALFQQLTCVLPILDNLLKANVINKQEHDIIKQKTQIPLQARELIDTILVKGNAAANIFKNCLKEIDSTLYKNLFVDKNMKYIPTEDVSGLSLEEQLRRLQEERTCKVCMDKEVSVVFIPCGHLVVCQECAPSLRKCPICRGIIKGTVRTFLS
T1 sequence (P02768 25-609): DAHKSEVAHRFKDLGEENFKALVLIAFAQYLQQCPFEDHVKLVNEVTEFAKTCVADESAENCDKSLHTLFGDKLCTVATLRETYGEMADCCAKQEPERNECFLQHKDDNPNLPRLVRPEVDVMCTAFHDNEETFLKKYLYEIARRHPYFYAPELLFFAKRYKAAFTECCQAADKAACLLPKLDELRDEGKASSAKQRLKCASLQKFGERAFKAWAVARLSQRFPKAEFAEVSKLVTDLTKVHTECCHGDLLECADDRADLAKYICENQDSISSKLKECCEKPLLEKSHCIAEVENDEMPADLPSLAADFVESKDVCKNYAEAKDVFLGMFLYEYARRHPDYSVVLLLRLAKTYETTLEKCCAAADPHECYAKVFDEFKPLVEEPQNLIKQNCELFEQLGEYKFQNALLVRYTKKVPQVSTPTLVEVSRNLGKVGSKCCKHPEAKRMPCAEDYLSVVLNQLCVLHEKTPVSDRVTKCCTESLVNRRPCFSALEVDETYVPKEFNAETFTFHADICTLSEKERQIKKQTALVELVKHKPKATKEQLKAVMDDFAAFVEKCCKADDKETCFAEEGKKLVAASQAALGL
XIAP, sequence (P98170 whole entry): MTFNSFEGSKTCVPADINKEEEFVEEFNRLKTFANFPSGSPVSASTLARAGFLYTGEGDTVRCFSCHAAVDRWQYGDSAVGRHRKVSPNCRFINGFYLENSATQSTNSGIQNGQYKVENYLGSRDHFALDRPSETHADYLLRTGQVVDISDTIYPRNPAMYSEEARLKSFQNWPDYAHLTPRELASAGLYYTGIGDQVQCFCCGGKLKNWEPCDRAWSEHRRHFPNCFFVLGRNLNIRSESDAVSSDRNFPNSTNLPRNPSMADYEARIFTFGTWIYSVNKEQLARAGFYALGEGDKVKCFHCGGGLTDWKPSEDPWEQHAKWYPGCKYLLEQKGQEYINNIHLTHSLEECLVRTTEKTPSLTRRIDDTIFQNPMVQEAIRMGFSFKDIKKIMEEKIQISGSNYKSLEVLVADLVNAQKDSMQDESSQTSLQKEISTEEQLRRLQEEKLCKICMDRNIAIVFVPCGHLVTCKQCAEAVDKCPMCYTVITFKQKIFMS
VHL30, sequence (P40337 whole entry): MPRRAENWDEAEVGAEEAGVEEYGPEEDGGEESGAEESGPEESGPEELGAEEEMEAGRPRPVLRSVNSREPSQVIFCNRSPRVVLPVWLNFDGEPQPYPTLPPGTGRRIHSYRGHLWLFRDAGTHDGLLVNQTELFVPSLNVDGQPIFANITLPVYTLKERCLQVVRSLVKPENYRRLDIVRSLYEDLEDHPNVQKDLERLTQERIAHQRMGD
CRBN, sequence (Q96SW2 whole entry): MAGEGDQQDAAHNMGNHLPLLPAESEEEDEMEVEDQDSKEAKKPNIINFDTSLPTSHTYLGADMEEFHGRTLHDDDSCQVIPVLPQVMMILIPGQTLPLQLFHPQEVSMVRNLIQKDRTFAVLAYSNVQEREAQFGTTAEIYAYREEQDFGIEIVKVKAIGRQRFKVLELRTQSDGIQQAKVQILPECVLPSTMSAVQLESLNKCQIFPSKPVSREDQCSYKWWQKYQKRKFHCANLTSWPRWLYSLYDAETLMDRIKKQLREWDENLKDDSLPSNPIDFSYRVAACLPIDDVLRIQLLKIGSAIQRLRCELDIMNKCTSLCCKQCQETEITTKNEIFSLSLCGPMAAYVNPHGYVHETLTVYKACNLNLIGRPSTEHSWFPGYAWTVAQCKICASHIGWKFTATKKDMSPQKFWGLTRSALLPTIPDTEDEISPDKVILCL
cIAP2, sequence (Q13489 whole entry): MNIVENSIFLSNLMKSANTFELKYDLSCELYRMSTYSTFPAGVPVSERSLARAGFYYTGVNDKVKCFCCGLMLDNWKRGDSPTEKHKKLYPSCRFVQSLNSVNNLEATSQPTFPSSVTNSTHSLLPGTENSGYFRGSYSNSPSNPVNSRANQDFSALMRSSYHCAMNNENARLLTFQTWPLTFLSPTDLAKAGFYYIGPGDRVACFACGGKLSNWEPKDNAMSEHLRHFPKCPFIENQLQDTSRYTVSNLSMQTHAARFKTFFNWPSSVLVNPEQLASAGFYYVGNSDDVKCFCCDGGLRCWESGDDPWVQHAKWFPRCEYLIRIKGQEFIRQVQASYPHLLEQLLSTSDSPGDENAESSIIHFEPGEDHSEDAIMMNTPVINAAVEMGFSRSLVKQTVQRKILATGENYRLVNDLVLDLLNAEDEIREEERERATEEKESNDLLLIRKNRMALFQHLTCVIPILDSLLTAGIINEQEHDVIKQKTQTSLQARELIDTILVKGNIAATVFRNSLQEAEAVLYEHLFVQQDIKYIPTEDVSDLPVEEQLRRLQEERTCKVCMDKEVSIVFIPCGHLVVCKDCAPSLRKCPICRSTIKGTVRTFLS

As to `CN[C@@H](C)C(=O)N[C@H](C(=O)N1C[C@@H](Oc2cccc(OCCOCCOCCOCCNc3cccc4c3C(=O)N(C3CCC(=O)NC3=O)C4=O)c2)C[C@H]1C(=O)N[C@@H]1CCCc2ccccc21)C1CCCCC1` (stereo partly drawn) [PROTAC 24, (2S,4S)-1-((S)-2-Cyclohexyl-2-((S)-2-(methylamino)propanamido)acetyl)-4-(3-(2-(2-(2-(2-((2-(2,6-dioxopiperidin-3-yl)-1,3-dioxoisoindolin-4-yl)amino)ethoxy)ethoxy)ethoxy)ethoxy)phenoxy)-N-((R)-1,2,3,4-tetrahydronaphthalen-1-yl)pyrrolidine-2-carboxamide], the fraction unbound at 0.5 mg/mL in [1] was 0.06. The compound also registered a chromatographic logD in [2] of 3.9. For the same compound, the remaining activity at 0.1 µM came out at 2% at XIAP (setting [4]), 86% on CRBN, 4% at cIAP1 (setting [5]) and 8% at cIAP2 (setting [6]). The “%remaining protein IKZF3” value with IKZF3 came out at 95%.

Turning to `CN[C@@H](C)C(=O)N[C@H](C(=O)N1C[C@@H](Oc2cccc(OCCOCCOCCOCCOc3cc(-c4scnc4C)ccc3CNC(=O)[C@@H]3C[C@@H](O)CN3C(=O)[C@H](C(C)C)N3Cc4ccccc4C3=O)c2)C[C@H]1C(=O)N[C@@H]1CCCc2ccccc21)C1CCCCC1` [PROTAC 16, (2S,4S)-1-((S)-2-Cyclohexyl-2-((S)-2-(methylamino)propanamido)acetyl)-4-(3-(2-(2-(2-(2-(2-(((2S,4R)-4-hydroxy-1-((S)-3-methyl-2-(1-oxoisoindolin-2-yl)butanoyl)pyrrolidine-2-carboxamido)methyl)-5-(4-methylthiazol-5-yl)phenoxy)ethoxy)ethoxy)ethoxy)ethoxy)phenoxy)-N-((R)-1,2,3,4-tetrahydronaphthalen-1-yl)pyrrolidine-2-carboxamide], the fraction unbound at 0.5 mg/mL in data set [1] was 0.05. This compound registered a chromatographic logD in [2] of 3.3. The remaining activity at 0.1 µM was found to be 2% at XIAP (setting [7]), 3% at cIAP1 (setting [8]), 31% at cIAP2 (setting [9]) and 41% at VHL30.

Turning to `CN[C@@H](C)C(=O)N[C@H](C(=O)N1C[C@@H](Oc2cccc(OCCCCCOCCCCCOCCCCCCNc3cccc4c3C(=O)N(C3CCC(=O)NC3=O)C4=O)c2)C[C@H]1C(=O)N[C@@H]1CCCc2ccccc21)C1CCCCC1` (stereo partly drawn) [PROTAC 26, (2S,4S)-1-((S)-2-Cyclohexyl-2-((S)-2-(methylamino)propanamido)acetyl)-4-(3-((5-((5-((6-((2-(2,6-dioxopiperidin-3-yl)-1,3-dioxoisoindolin-4-yl)amino)hexyl)oxy)pentyl)oxy)pentyl)oxy)phenoxy)-N-((R)-1,2,3,4-tetrahydronaphthalen-1-yl)pyrrolidine-2-carboxamide], the “IAP degradation profile (in words)” value in [3] was “pronounced pan-IAP depletion”. The compound further had a chromatographic logD in data set [2] of 6.5. For the same compound, the remaining activity at 0.1 µM at XIAP (setting [7]) turned out to be 2%; at CRBN it was 95%; at cIAP1 (setting [8]), 10%; at cIAP2 (setting [9]), 16%. In addition, the “IKZF3 degradation (in words)” value with IKZF3 (16 h, 1 μM) is given as “substantial IKZF3 degradation at 1 μM”. For the same compound, in the data set on IKZF3, the “%remaining protein IKZF3” value amounted to 90%.

As to `CC[C@H](NC(=O)[C@H](C)NC)C(=O)N1C[C@@H](O)C[C@H]1Cc1c(-c2[nH]c3cc(F)ccc3c2C[C@@H]2C[C@H](O)CN2C(=O)[C@H](CC)NC(=O)[C@H](C)NC)[nH]c2cc(F)ccc12` [birinapant, reference compound], the “IAP degradation profile (in words)” value in data set [3] is reported as “potent cIAP autodegradation”. Besides, the fraction unbound at 0.5 mg/mL in data set [1] is 0.05. In [2], this compound displayed a chromatographic logD of 3.4. For the same compound, the “cIAP2 degradation (in words)” value at cIAP2 (MM.1S cells, 16 h, western blot, 0.1 or 1 μM) was “substantial degradation”.

As to “(2S,4S)-1-((S)-2-Cyclohexyl-2-((S)-2-(methylamino)propanamido)acetyl)-4-(3-((8-((2-(2,6-dioxopiperidin-3-yl)-1,3-dioxoisoindolin-4-yl)amino)octyl)oxy)phenoxy)-N-((R)-1,2,3,4-tetrahydronaphthalen-1-yl)pyrrolidine-2-carboxamide [PROTAC 21]”, the “logD (experimental partition coefficient, elog D7.4)” value in [2] (pH 7.4, fast-gradient HPLC method) is on record as 5.7. For the same compound, at XIAP (setting [10]), the “%remaining protein XIAP” value worked out at 4%. Moreover, on CRBN (setting [10]), the “%remaining protein CRBN” value was determined as 90%. Also, the “%remaining protein cIAP1” value on cIAP1 (setting [10]) stood at 5%. Further, the “%remaining protein cIAP2” value on cIAP2 (setting [10]) amounted to 14%. Moreover, the “%remaining protein IKZF3” value in the data set with IKZF3 is given as 95%.

With `CN[C@@H](C)C(=O)N[C@H](C(=O)N1C[C@@H](Oc2cccc(OCCOCCOCCNc3cccc4c3C(=O)N(C3CCC(=O)NC3=O)C4=O)c2)C[C@H]1C(=O)N[C@@H]1CCCc2ccccc21)C1CCCCC1` (stereo partly drawn) [PROTAC 23, (2S,4S)-1-((S)-2-Cyclohexyl-2-((S)-2-(methylamino)propanamido)acetyl)-4-(3-(2-(2-(2-((2-(2,6-dioxopiperidin-3-yl)-1,3-dioxoisoindolin-4-yl)amino)ethoxy)ethoxy)ethoxy)phenoxy)-N-((R)-1,2,3,4-tetrahydronaphthalen-1-yl)pyrrolidine-2-carboxamide], the fraction unbound at 0.5 mg/mL in data set [1] is 0.05. In addition, the chromatographic logD in data set [2] was 3.9. Besides, the remaining activity at 0.1 µM came to 3% at XIAP (setting [4]), 85% on CRBN, 4% at cIAP1 (setting [5]) and 11% at cIAP2 (setting [6]). Also, the “%remaining protein IKZF3” value in the data set with IKZF3 is given as 95%.

Take `CN[C@@H](C)C(=O)N[C@H](C(=O)N1C[C@@H](Oc2cccc(OCCCCOCCCCOc3cc(-c4scnc4C)ccc3CNC(=O)[C@@H]3C[C@@H](O)CN3C(=O)[C@H](C(C)C)N3Cc4ccccc4C3=O)c2)C[C@H]1C(=O)N[C@@H]1CCCc2ccccc21)C1CCCCC1` [PROTAC 14, (2S,4S)-1-((S)-2-Cyclohexyl-2-((S)-2-(methylamino)propanamido)acetyl)-4-(3-(4-(4-(2-(((2S,4R)-4-hydroxy-1-((S)-3-methyl-2-(1-oxoisoindolin-2-yl)butanoyl)pyrrolidine-2-carboxamido)methyl)-5-(4-methylthiazol-5-yl)phenoxy)butoxy)butoxy)phenoxy)-N-((R)-1,2,3,4-tetrahydronaphthalen-1-yl)pyrrolidine-2-carboxamide]: the fraction unbound at 0.5 mg/mL in data set [1] was 0.04. Besides, the chromatographic logD in data set [2] was determined as 4.2. The remaining activity at 0.1 µM on XIAP (setting [7]) was determined as 3%; at cIAP1 (setting [8]) it was 2%; at cIAP2 (setting [9]), 15%; at VHL30, 39%.

For the compound `CN[C@@H](C)C(=O)N[C@H](C(=O)N1C[C@@H](Oc2cccc(OCCOCCOCCOc3cc(-c4scnc4C)ccc3CNC(=O)[C@@H]3C[C@@H](O)CN3C(=O)[C@H](C(C)C)N3Cc4ccccc4C3=O)c2)C[C@H]1C(=O)N[C@@H]1CCCc2ccccc21)C1CCCCC1` [PROTAC 15, (2S,4S)-1-((S)-2-Cyclohexyl-2-((S)-2-(methylamino)propanamido)acetyl)-4-(3-(2-(2-(2-(2-(((2S,4R)-4-hydroxy-1-((S)-3-methyl-2-(1-oxoisoindolin-2-yl)butanoyl)pyrrolidine-2-carboxamido)methyl)-5-(4-methylthiazol-5-yl)phenoxy)ethoxy)ethoxy)ethoxy)phenoxy)-N-((R)-1,2,3,4-tetrahydronaphthalen-1-yl)pyrrolidine-2-carboxamide], the fraction unbound at 0.5 mg/mL in data set [1] was 0.05. This compound also came in with a chromatographic logD in data set [2] of 3.4. Also, the remaining activity at 0.1 µM came out at 3% on XIAP (setting [7]), 3% on cIAP1 (setting [8]), 32% on cIAP2 (setting [9]) and 51% at VHL30.
